{"source": "patent US20220296625A1", "about": "(priority 2019, published 2022)", "key": {"[1]": {"tested_on": "male C57BL mice", "experiment": "Survival of mice after streptozotocin i.p. with or without oral LPSea (Example 5)", "type": "in vivo", "conditions": "STZ 313 mg/kg i.p.; for Survival rate (%): LPSea 1 mg/kg body weight/day in drinking water", "description": "1) Reagents • LPS (LPSea) derived from Enterobacter asburiae belonging to genus Enterobacter of family Enterobacteriaceae (Macrophi Inc.) • Streptozotocin (STZ) (SAJ-S0130 of Sigma-Aldrich)\n(§1) Six-week-old male C57BL mice were used. […] As food, the D12450B diet of Research Diets, Inc. was provided."}, "[2]": {"tested_on": "male C57BL mice", "experiment": "Survival of mice after streptozotocin i.p. with or without oral LPSp (Example 1)", "type": "in vivo", "conditions": "STZ 250 mg/kg i.p.; for Survival rate (%): LPSp 100 μg/kg body weight/day in drinking water", "method": "1) Reagents • LPS (LPSp) derived from Pantoea agglomerans belonging to genus Pantoea of family Enterobacteriaceae (mac0001 of Macrophi Inc.) • Streptozotocin (STZ) (SAJ-S0130 of Sigma-Aldrich)\nas §1\nPBS administration group (PBS i.p.): 0.5 mL of phosphate buffer saline (PBS) were injected into the peritoneal cavity of each mouse."}, "[3]": {"type": "in vivo, mice", "conditions": "for Mice body weights after anticancer agent administration (relative value in % with body weights for saline i.p. being 100): LPSp 1 mg/kg body weight/day in drinking water", "description": "(§2) Four-week-old male ICR mice were used."}, "[4]": {"tested_on": "male ICR mice", "experiment": "Survival of mice after cisplatin i.p. with or without oral LPSp (Example 2)", "type": "in vivo", "conditions": "cisplatin 17.4 mg/kg i.p.; for Survival rate (%): LPSp 1 mg/kg body weight/day in drinking water", "description": "as §2"}, "[5]": {"experiment": "Body weight of mice after cyclophosphamide i.p. with or without oral LPSp (Example 3)", "conditions": "11th day and 13th day from administration; Tukey's multiple comparison test", "experimental": "Four-week-old male ICR mice were used. Husbandry of the mice was carried out in a temperature and humidity controlled animal facility under environmental conditions of ad libitum food and water, and 12 hr light/12 hr dark. As food, CE-12 of CLEA Japan, Inc. was provided. After measuring the body weights at the time of delivery, the mice were divided into 3 groups of 6 mice each.\nPhysiological saline administration group (saline i.p.): 0.5 mL of physiological saline were injected into the peritoneal cavity of each mouse."}}, "note": "Read-outs that look alike come from different tables or passages of the source.", "data": [{"smiles": "CN(N=O)C(=O)N[C@H]1C(O)O[C@H](CO)[C@@H](O)[C@@H]1O", "note": "(mixture of isomers) [STZ i.p., Streptozotocin]", "values": [{"measurement": "mice died", "setting": "[1]; by the 4th day from anticancer agent administration, LPSea 1 mg/kg body weight/day", "value": "1 out of 6"}, {"measurement": "Survival rate (%)", "setting": "[1]; day 3, 6 mice per group", "value": 100, "unit": "%"}, {"measurement": "Survival rate (%)", "setting": "[1]; day 4", "value": 83.33, "unit": "%"}, {"measurement": "Survival rate (%)", "setting": "[1]; day 8", "value": 83.33, "unit": "%"}, {"measurement": "mice died", "setting": "[2]; 5th day", "value": "6 out of 6"}, {"measurement": "Survival rate (%)", "setting": "[2]; day 3, 6 mice per group", "value": 66.7, "unit": "%"}, {"measurement": "Survival rate (%)", "setting": "[2]; day 4", "value": 33.3, "unit": "%"}, {"measurement": "Survival rate (%)", "setting": "[2]; day 4.5", "value": 33.3, "unit": "%"}, {"measurement": "Survival rate (%)", "setting": "[2]; day 5", "value": 0.0, "unit": "%"}, {"measurement": "Survival rate (%)", "setting": "[2]; day 9", "value": 0.0, "unit": "%"}, {"measurement": "Survival rate (%)", "setting": "[2]; day 11", "value": 0.0, "unit": "%"}, {"measurement": "Survival rate (%)", "setting": "[2]; day 21", "value": 0.0, "unit": "%"}, {"measurement": "Survival rate (%)", "setting": "[2]; day 29", "value": 0.0, "unit": "%"}]}, {"smiles": "O=c1[nH]cc(F)c(=O)[nH]1", "note": "[5-FU i.p., 5-fluorouracil]", "values": [{"measurement": "Mice body weights after anticancer agent administration (relative value in % with body weights for saline i.p. being 100)", "setting": "[3]; 0 day, 5-fluorouracil 360 mg/kg i.p.", "value": "102.0 ± 2.4", "unit": "%"}, {"measurement": "weight loss in comparison to the physiological saline administration group", "setting": "[3]; 3rd day from anticancer agent administration, 5-fluorouracil 360 mg/kg i.p., Tukey's multiple comparison test", "value": "significant weight loss"}, {"measurement": "body weight, comparison of 5-FU i.p. and 5-FU i.p.+LPS groups", "setting": "[3]; 6th day, Tukey's multiple comparison test P<0.05", "value": "significantly low"}, {"measurement": "Mice body weights after anticancer agent administration (relative value in % with body weights for saline i.p. being 100)", "setting": "[3]; 3 day, 5-fluorouracil 360 mg/kg i.p.", "value": "91.8 ± 4.1", "unit": "%"}, {"measurement": "Mice body weights after anticancer agent administration (relative value in % with body weights for saline i.p. being 100)", "setting": "[3]; 6 day, 5-fluorouracil 360 mg/kg i.p.", "value": "94.5 ± 2.6^ %"}]}, {"smiles": "N.N.[Cl][Pt][Cl]", "note": "[CDDP i.p., Cisplatin]", "values": [{"measurement": "mice survived", "setting": "[4]; 14th day, LPSp 1 mg/kg body weight/day, Kaplan-Meier test P<0.05", "value": "1 out of 6"}, {"measurement": "mice died", "setting": "[4]; by the 6th day from anticancer agent administration, LPSp 1 mg/kg body weight/day", "value": "5 out of 6"}, {"measurement": "Survival rate (%)", "setting": "[4]; day 5, 6 mice per group", "value": 50, "unit": "%"}, {"measurement": "Survival rate (%)", "setting": "[4]; day 6", "value": 16.7, "unit": "%"}, {"measurement": "Survival rate (%)", "setting": "[4]; day 7", "value": 16.7, "unit": "%"}, {"measurement": "Survival rate (%)", "setting": "[4]; day 14", "value": 16.7, "unit": "%"}]}, {"smiles": "O=P1(N(CCCl)CCCl)NCCCO1", "note": "(stereo not shown) [CY i.p., Cyclophosphamide]", "values": [{"measurement": "weight loss in comparison to the physiological saline administration group", "setting": "[5]", "value": "significant weight loss"}]}]}
